Patent US12377094B2, “Therapeutic compositions and methods for treating checkpoint inhibitor-resistant tumors using plinabulin-based combination therapies” (BeyondSpring Pharmaceuticals, Inc., priority 2021, dated 2025)

Test: Dose-escalation Phase I study of nivolumab, ipilimumab and plinabulin: safety (DLT, RP2D, treatment-related AEs, irAEs)
Assay type: in vivo, human
Conditions: with nivolumab 1 mg/kg and ipilimumab 3 mg/kg, IV day 1 of 21 day cycle; dose-level 2
Text: In a dose-escalation Phase I study, patients with recurrent extensive-stage small cell lung cancer (SCLC) who had progressed on prior platinum-based chemotherapy were enrolled using a 3+3 design. The primary objective was to determine dose-limiting toxicities (DLT's) and recommended Phase 2 dose (RP2D). Patients were evaluable for DLT if they received at least two cycles of therapy; DLT period was defined as the first six weeks. Secondary endpoints were ORR, PFS and frequency of irAEs. Correlative analysis included inflammatory biomarkers: hsCRP, ESR, SAA and haptoglobin.
Patients received nivolumab (1 mg/kg), ipilimumab (3 mg/kg) and plinabulin (as per dose escalation schema) IV on day 1 of each 21 day cycle. After completion of 4 cycles, patients continued therapy with nivolumab (240 mg) and plinabulin every 2 weeks till progression or intolerable toxicity. Patients were evaluable for DLT if they received at least 2 cycles of therapy; DLT period was defined as the first 6 weeks from C1D1.

## CC(C)(C)c1[nH]cnc1/C=c1\[nH]c(=O)/c(=C/c2ccccc2)[nH]c1=O [plinabulin, (3Z,6Z)-3-Benzylidene-6-{[5-(2-methyl-2-propanyl)-1H-imidazol-4-yl]methylene}-2,5-piperazinedione]
  recommended Phase 2 dose (RP2D) of plinabulin: 30 mg/m2
